# “Also recorded” adds a separate entry of the source.
# Tests used:
# [1] = system: Golgi; experiment: Fluorescence quantification of 3D images: drug-induced Golgi reorganization; format: cell-based, human; conditions: GFP channel intensity summed over z-stack, 30-minute intervals, vs DMSO
# Excerpt: (§1) The pipeline was prototyped using a small suite of well-characterized compounds that include brefeldin A, paclitaxel, rapamycin, wortmannin and staurosporine (FIG. 26A). Low-resolution imaging (24× magnification) was used to test a matrix of concentrations and time points for each compound of interest to establish an initial set of conditions for each perturbation. hiPSC colonies were monitored for morphologic changes using transmitted light (FIG. 26B) and an endogenously GFP-tagged structure, such as microtubules (FIG. 26C). After establishing an end point response for several compounds, high-resolution (120× magnification) imaging of multiple cell lines was performed under standardized perturbation parameters, in the presence of dyes to label the nucleus and cell membrane for reference purposes (FIG. 27). […] Cells were treated with the indicated perturbation agent at a pre-selected concentration and time point established in phase I.
# (§2) Fluorescence quantification of the 3D images were used to analyze drug-induced Golgi reorganization, cytoskeleton reorganization, and cell junction reorganization. To quantify the relative abundance of each structure of interest (e.g. Golgi as presented above), the pixel intensities of the GFP channel (488 nm) were summed across the entire z-stack. […]
# [2] = system: microtubules; experiment: Image-based drug perturbation of GFP-tagged hiPSC lines: microtubules; format: cell-based, human
# Excerpt: as §1, §2
# [3] = system: ER; experiment: Image-based drug perturbation of GFP-tagged hiPSC lines: ER; format: cell-based, human; conditions: hiPS cells undergoing mitosis
# Excerpt: as §1
# [4] = system: actin; experiment: Image-based drug perturbation of GFP-tagged hiPSC lines: actin; format: cell-based, human
# Excerpt: as §1, §2
# [5] = system: cell junctions; experiment: Image-based drug perturbation of GFP-tagged hiPSC lines: cell junctions; parameters: species or system human
# Excerpt: as §1
# [6] = system: hiPSC colonies; experiment: Image-based drug perturbation of hiPSC colonies: colony and cell morphology; parameters: species or system human
# Excerpt: as §1
# [7] = system: desmosomes; experiment: Image-based drug perturbation of GFP-tagged hiPSC lines: desmosomes (3D object count); format: cell-based, human
# Excerpt: (§3) The pipeline was prototyped using a small suite of well-characterized compounds that include brefeldin A, paclitaxel, rapamycin, wortmannin and staurosporine (FIG. 26A). Low-resolution imaging (24× magnification) was used to test a matrix of concentrations and time points for each compound of interest to establish an initial set of conditions for each perturbation. hiPSC colonies were monitored for morphologic changes using transmitted light (FIG. 26B) and an endogenously GFP-tagged structure, such as microtubules (FIG. 26C). After establishing an end point response for several compounds, high-resolution (120× magnification) imaging of multiple cell lines was performed under standardized perturbation parameters, in the presence of dyes to label the nucleus and cell membrane for reference purposes (FIG. 27). […]
# (§4) For drug-induced effects on cell junction reorganization, representative maximum intensity projections of a z-stack along the x-z axis are shown in FIG. 30. From these projections, the mean pixel intensity for the GFP channel along the x-axis, from the top of the image to the bottom, was measured to generate an intensity profile plot. […] To analyze the change in desmosome number, the number of 3D objects in a z-stack were counted using the 3D Object Counter tool in Fiji. […] Data were analyzed by Student's t-test (** p<0.01).
# [8] = system: myosin; experiment: Relative fluorescence quantification and z-axis intensity profiling: myosin; format: cell-based, human; conditions: for myosin organization through the thickness of the cell: z-axis intensity profiling
# Excerpt: as §1
# Fluorescence quantification of the 3D images were used to analyze drug-induced Golgi reorganization, cytoskeleton reorganization, and cell junction reorganization. To quantify the relative abundance of each structure of interest (e.g. Golgi as presented above), the pixel intensities of the GFP channel (488 nm) were summed across the entire z-stack. For each experiment, the same threshold was used to exclude background intensity noise across the control (DMSO) and experimental (perturbation agent) groups. The data were plotted by averaging z-stack data from a time interval (30-minute) and compared to the control DMSO data. Dunnett's multiple comparison test was used to perform one-way ANOVA between the different time intervals against the control group.
# [9] = system: ZO-1; experiment: Z-axis intensity profiling of 3D images: cell junction reorganization (ZO-1); format: cell-based, human; conditions: x-z maximum intensity projection, intensity profile plot
# Excerpt: as §3, §4
# [10] = 3D fluorescence quantification vs DMSO
molecule,measurement,setting,value
"C[C@H]1CCC/C=C/[C@@H]2C[C@H](O)C[C@H]2[C@H](O)/C=C/C(=O)O1 [Brefeldin A, brefeldin A]",effect on Golgi organization,[1],induced dissociation of the golgi within 30 minutes
CC(=O)O[C@H]1C(=O)[C@@]2(C)[C@H]([C@H](OC(=O)c3ccccc3)[C@]3(O)C[C@H](OC(=O)[C@H](O)[C@@H](NC(=O)c4ccccc4)c4ccccc4)C(C)=C1C3(C)C)[C@]1(OC(C)=O)CO[C@@H]1C[C@@H]2O [paclitaxel],effect on microtubule organization,"[2]; GFP-tagged hiPSC, high-resolution (120x) imaging, vs DMSO control",increased microtubule bundle thickness and altered the shape and position of the mitotic spindle; also recorded: stabilized the microtubules
same,microtubule relative localized fluorescence intensity,"[2]; over time, vs DMSO",trend of increased relative localized fluorescence intensity over time
same,effect on organization of the ER,[3],induced aberrant reorganization of the ER
same,effect on bulk organization of the actin bundles,[4]; GFP-tagged hiPSC,minimal effects
same,effect on bulk organization of cell junctions,[5],minimal effects
CN[C@@H]1C[C@H]2O[C@@](C)([C@@H]1OC)n1c3ccccc3c3c4c(c5c6ccccc6n2c5c31)C(=O)NC4 [staurosporine],effect on colony and cell morphology,[6],"major effects on colony and cell morphology, inducing rearrangements in cell packing and shape"
same,number of DSP-positive plaques,"[7]; 3D Object Counter, Student's t-test p<0.01",increased in number
same,effect on desmosome localization,[7]; GFP-tagged hiPSC,induced re-localization of desmosomes; also recorded: desmosomes relocalized throughout the cell
same,myosin organization through the thickness of the cell,[8],induced reorganization of the myosin
same,distribution of ZO-1 along the z-axis,[9],redistribution of ZO-1 along the z-axis
(S)-nitro blebbistatin,relative actin protein abundance and organization,[4]; [10],reorganization and relative decrease
same,effect on Golgi organization,[1],induced fragmentation of the organelle
same,relative myosin protein abundance and organization,[8]; [10],reorganization and relative decrease
same,myosin organization through the thickness of the cell,[8],induced reorganization of the myosin
same,distribution of ZO-1 along the z-axis,[9],redistribution of ZO-1 along the z-axis

# — patent US20190365818A1, “GENETICALLY-TAGGED STEM CELL LINES AND METHODS OF USE” (ALLEN INSTITUTE, priority 2017, published 2019)
